Assay results: paper PMC4440651, “Thymoquinone Inhibits Escherichia coli ATP Synthase and Cell Growth” (PLoS ONE, 2015)

Biological target: T1, E. coli F1Fo ATP synthase (F1-ATPase) (Escherichia coli, UniProt P0ABA6+P0ABB0+P0ABB4)
T1 construct: gene atpD; with F1 alpha (atpA), gamma (atpG), delta and epsilon subunits; Fo (ab2c10–14) in the membrane preparation
Assay: ATPase activity assay (liberated Pi) on purified F1 and F1Fo membranes; reversal by dilution or centrifuge column
Format: biochemical

`CC1=CC(=O)C(C(C)C)=CC1=O` [TQ, thymoquinone] was tested, and the IC50 was about 37 µM.
